Source: patent US20210121542A1, “COMPOSITION FOR […] OF PROTEIN TH[…] ORAL, SUBLINGUAL AND BUCCAL ROUTE” (Prime Bio, Inc., priority 2019, published 2021)

System: trypsin
Type: in vitro ADME

Substance: bovine serum albumin [BSA]
- % Relative Protection (compared with BSA + Trypsin): 0%
